What was measured:
system Xc^− [1] = target: T1, system Xc^− (Homo sapiens, UniProt Q9UPY5); assay: [^14C]L-Cystine uptake assay; format: cell-based; design: endogenous in cells; host or cells: H4 cells; conditions: H4 cells, sodium-free HEPES buffer, 0.5 μM L-[14C]Cystine and 4.5 μM L-Cystine, 1 hour at 37° C.; read-out: pIC50 [^14C] L-Cystine uptake assay (converted)
T1 sequence (Q9UPY5 1-501): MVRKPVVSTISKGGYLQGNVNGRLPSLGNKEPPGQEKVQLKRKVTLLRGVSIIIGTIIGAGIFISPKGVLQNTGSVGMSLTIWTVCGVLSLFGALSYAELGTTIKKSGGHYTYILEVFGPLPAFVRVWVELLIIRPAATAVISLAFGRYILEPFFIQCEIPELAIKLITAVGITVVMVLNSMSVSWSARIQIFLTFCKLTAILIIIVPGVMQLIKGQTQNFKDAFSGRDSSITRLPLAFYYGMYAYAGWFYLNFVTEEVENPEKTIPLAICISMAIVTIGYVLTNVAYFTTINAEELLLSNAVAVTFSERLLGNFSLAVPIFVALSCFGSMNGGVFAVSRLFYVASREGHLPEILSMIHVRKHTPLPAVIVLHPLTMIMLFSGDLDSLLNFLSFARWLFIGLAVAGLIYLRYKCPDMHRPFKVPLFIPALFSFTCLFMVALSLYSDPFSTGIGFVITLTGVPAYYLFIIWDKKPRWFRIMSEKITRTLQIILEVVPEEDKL
T1 sequence (P08195 1-529 partner): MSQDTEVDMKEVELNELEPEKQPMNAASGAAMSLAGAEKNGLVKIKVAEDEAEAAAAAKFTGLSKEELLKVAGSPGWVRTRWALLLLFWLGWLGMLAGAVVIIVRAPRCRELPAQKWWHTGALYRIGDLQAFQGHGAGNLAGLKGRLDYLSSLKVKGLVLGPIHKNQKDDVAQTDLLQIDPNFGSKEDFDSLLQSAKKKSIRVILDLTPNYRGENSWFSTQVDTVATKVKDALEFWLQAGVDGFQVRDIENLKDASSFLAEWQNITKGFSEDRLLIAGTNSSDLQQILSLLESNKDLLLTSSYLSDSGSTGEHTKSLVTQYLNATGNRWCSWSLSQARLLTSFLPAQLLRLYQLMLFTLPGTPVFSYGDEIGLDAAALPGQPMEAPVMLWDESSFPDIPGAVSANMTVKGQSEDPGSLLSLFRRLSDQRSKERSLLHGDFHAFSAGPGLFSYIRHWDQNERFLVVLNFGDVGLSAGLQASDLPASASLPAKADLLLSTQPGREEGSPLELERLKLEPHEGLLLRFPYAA
Procedure, shortened: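 H4 cells at 5×10^4 cells/well in sodium-free HEPES buffer were preincubated 15 min with compounds (1% DMSO). Uptake of 0.5 μM [14C]L-cystine plus 4.5 μM unlabelled L-cystine ran 1 hour at 37° C on scintillating plates. IC50 was set between 1% DMSO and 50 μM Erastin controls and expressed as pIC50.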

system Xc^− [2] = target: T1, system Xc^−; assay: Cystine-induced glutamate release assay; format: cell-based; design: endogenous in cells; host or cells: H4 cells; conditions: H4 cells, sodium-free HEPES buffer, 50 μM L-Cystine, 2 hours, Amplex Red glutamate readout; read-out: pIC50 Cystine-induced glutamate release assay (converted)
Procedure, shortened: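 H4 cells in sodium-free HEPES buffer (pH 7.4), 2 days after plating; glutamate release induced with 50 μM L-cystine plus compound (1% DMSO), 2 h at 37 °C. Supernatant glutamate measured by Amplex Red fluorescence; IC50/pIC50 derived between 1% DMSO and 50 μM erastin controls.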

Row | IC50 (system Xc^− [1]) | IC50 (system Xc^− [2]) | SMILES
1 | 15.8 to 39.8 nM | 39.8 to 100 nM | Cc1cc2c(c(F)n1)-c1cccnc1C(CO)C(=O)N2CC(=O)Nc1ccc(C(F)(F)F)cc1 (stereo not drawn) [#152, 2-[3-fluoro-10-(hydroxymethyl)-5-methyl-9-oxo-4,8,12-triazatricyclo[9.4.0.0^2,7]pentadeca-1(11),2(7),3,5,12,14-hexaen-8-yl]-N-[4-(trifluoromethyl)phenyl]acetamide]
2 | 15.8 to 39.8 nM | 15.8 to 39.8 nM | Cc1cc2c(c(C#N)n1)-c1cccnc1CC(=O)N2CC(=O)Nc1ccc(C(F)(F)F)cc1 [#153, 2-(3-cyano-5-methyl-9-oxo-4,8,12-triazatricyclo[9.4.0.0^2,7]pentadeca-1(11),2(7),3,5,12,14-hexaen-8-yl)-N-[4-(trifluoromethyl)phenyl]acetamide]
3 | < 15.8 nM | 15.8 to 39.8 nM | Cc1cc2c(c(C#N)n1)-c1cccnc1C(C)C(=O)N2CC(=O)Nc1ccc(C(F)(F)F)cc1 (stereo not drawn) [#154, 2-(3-cyano-5,10-dimethyl-9-oxo-4,8,12-triazatricyclo[9.4.0.0^2,7]pentadeca-1(11),2(7),3,5,12,14-hexaen-8-yl)-N-[4-(trifluoromethyl)phenyl]acetamide]
4 | 39.8 to 100 nM | 15.8 to 39.8 nM | Cc1cc2c(c(=O)[nH]1)-c1ccccc1C(C)C(=O)N2CC(=O)Nc1ccc(C(F)(F)F)cc1 (stereo not drawn) [#156, 2-(3,7-dimethyl-1,6-dioxo-2,7-dihydropyrido[4,3-d][3]benzazepin-5-yl)-N-[4-(trifluoromethyl)phenyl]acetamide]
5 | < 15.8 nM | 15.8 to 39.8 nM | COc1nc(C)cc2c1-c1cncnc1C(C)C(=O)N2CC(=O)Nc1ccc(C(F)(F)F)cc1 (stereo not drawn) [#157, 2-(15-methoxy-8,13-dimethyl-9-oxo-4,6,10,14-tetrazatricyclo[9.4.0.0^2,7]pentadeca-1(11),2(7),3,5,12,14-hexaen-10-yl)-N-[4-(trifluoromethyl)phenyl]acetamide]
6 | < 15.8 nM | 15.8 to 39.8 nM | Cc1cc2c(c(F)n1)-c1cccnc1[C@@H](C)C(=O)N2CC(=O)Nc1ccc(Br)c(F)c1 [#158, N-(4-bromo-3-fluoro-phenyl)-2-[(10R)-3-fluoro-5,10-dimethyl-9-oxo-4,8,12-triazatricyclo[9.4.0.0^2,7]pentadeca-1(11),2(7),3,5,12,14-hexaen-8-yl]acetamide]
7 | 15.8 to 39.8 nM | 39.8 to 100 nM | COC1C(=O)N(CC(=O)Nc2ccc(C(F)(F)F)cc2)c2cc(C)nc(Cl)c2-c2cccnc21 (stereo not drawn) [#159, 2-(3-chloro-10-methoxy-5-methyl-9-oxo-4,8,12-triazatricyclo[9.4.0.0^2,7]pentadeca-1(11),2(7),3,5,12,14-hexaen-8-yl)-N-[4-(trifluoromethyl)phenyl]acetamide]
8 | 15.8 to 39.8 nM | 100 to 501 nM | Cc1cc2c(c(Cl)n1)-c1cncc(F)c1CC(=O)N2CC(=O)Nc1ccc(C(F)(F)F)cc1 [#160, 2-(3-chloro-12-fluoro-5-methyl-9-oxo-4,8,14-triazatricyclo[9.4.0.0^2,7]pentadeca-1(11),2(7),3,5,12,14-hexaen-8-yl)-N-[4-(trifluoromethyl)phenyl]acetamide]
9 | 15.8 to 39.8 nM | 15.8 to 39.8 nM | Cc1cc2c(c(Cl)n1)-c1cncnc1C(C)C(=O)N2CC(=O)Nc1ccc(C(F)(F)F)cc1 (stereo not drawn) [#163, 2-(15-chloro-8,13-dimethyl-9-oxo-4,6,10,14-tetrazatricyclo[9.4.0.0^2,7]pentadeca-1(11),2(7),3,5,12,14-hexaen-10-yl)-N-[4-(trifluoromethyl)phenyl]acetamide]
10 | 39.8 to 100 nM | 100 to 501 nM | COc1ccc2c(c1)-c1c(cc(C)nc1Cl)N(CC(=O)Nc1ccc(C(F)(F)F)cc1)C(=O)C2C (stereo not drawn) [#164, 2-(1-chloro-10-methoxy-3,7-dimethyl-6-oxo-7H-pyrido[4,3-d][3]benzazepin-5-yl)-N-[4-(trifluoromethyl)phenyl]acetamide]
11 | 100 to 501 nM | 100 to 501 nM | Cc1cc2c(c(F)n1)-c1cccc(CO)c1CC(=O)N2CC(=O)Nc1ccc(C(F)(F)F)cc1 [#165, 2-[1-fluoro-8-(hydroxymethyl)-3-methyl-6-oxo-7H-pyrido[4,3-d][3]benzazepin-5-yl]-N-[4-(trifluoromethyl)phenyl]acetamide]
12 | 15.8 to 39.8 nM | 15.8 to 39.8 nM | Cc1cc2c(n(C)c1=O)-c1ccccc1N(C)C(=O)N2CC(=O)Nc1ccc(Cl)c(F)c1 [#166, N-(4-chloro-3-fluoro-phenyl)-2-(1,3,7-trimethyl-2,6-dioxo-pyrido[3,2-d][1,3]benzodiazepin-5-yl)acetamide]
13 | 15.8 to 39.8 nM | 39.8 to 100 nM | Cc1nc(C#N)cc2c1-c1cccnc1CC(=O)N2CC(=O)Nc1ccc(C(F)(F)F)cc1 [#167, 2-(5-cyano-3-methyl-9-oxo-4,8,12-triazatricyclo[9.4.0.0^2,7]pentadeca-1(11),2(7),3,5,12,14-hexaen-8-yl)-N-[4-(trifluoromethyl)phenyl]acetamide]
14 | 15.8 to 39.8 nM | 100 to 501 nM | O=C(CN1C(=O)Cc2ncccc2-c2c1cc(Cl)nc2Cl)Nc1ccc(C(F)(F)F)cc1 [#168, 2-(3,5-dichloro-9-oxo-4,8,12-triazatricyclo[9.4.0.0^2,7]pentadeca-1(11),2(7),3,5,12,14-hexaen-8-yl)-N-[4-(trifluoromethyl)phenyl]acetamide]
15 | 15.8 to 39.8 nM | 100 to 501 nM | CNc1cc2c(c(Cl)n1)-c1cccnc1CC(=O)N2CC(=O)Nc1ccc(C(F)(F)F)cc1 [#169, 2-[3-chloro-5-(methylamino)-9-oxo-4,8,12-triazatricyclo[9.4.0.0^2,7]pentadeca-1(11),2(7),3,5,12,14-hexaen-8-yl]-N-[4-(trifluoromethyl)phenyl]acetamide]
16 | 39.8 to 100 nM | 39.8 to 100 nM | CN1CC(c2cc3c(c(Cl)n2)-c2cccnc2CC(=O)N3CC(=O)Nc2ccc(C(F)(F)F)cc2)C1 [#170, 2-[3-chloro-5-(1-methylazetidin-3-yl)-9-oxo-4,8,12-triazatricyclo[9.4.0.0^2,7]pentadeca-1(11),2(7),3,5,12,14-hexaen-8-yl]-N-[4-(trifluoromethyl)phenyl]acetamide]
17 | 15.8 to 39.8 nM | 39.8 to 100 nM | Cc1cc2c(c(F)n1)-c1cncc(F)c1C(C)C(=O)N2CC(=O)Nc1ccc(C(F)(F)F)cc1 (stereo not drawn) [#171, 2-(3,12-difluoro-5,10-dimethyl-9-oxo-4,8,14-triazatricyclo[9.4.0.0^2,7]pentadeca-1(11),2(7),3,5,12,14-hexaen-8-yl)-N-[4-(trifluoromethyl)phenyl]acetamide]
18 | 15.8 to 39.8 nM | 15.8 to 39.8 nM | Cc1cc2c(c(F)n1)-c1ccnnc1C(C)C(=O)N2CC(=O)Nc1ccc(C(F)(F)F)cc1 (stereo not drawn) [#172, 2-(3-fluoro-5,10-dimethyl-9-oxo-4,8,12,13-tetrazatricyclo[9.4.0.0^2,7]pentadeca-1(11),2(7),3,5,12,14-hexaen-8-yl)-N-[4-(trifluoromethyl)phenyl]acetamide]
19 | < 15.8 nM | 15.8 to 39.8 nM | Cc1cc2c(c(Cl)n1)-c1ccnnc1C(C)C(=O)N2CC(=O)Nc1ccc(C(F)(F)F)cc1 (stereo not drawn) [#173, 2-(3-chloro-5,10-dimethyl-9-oxo-4,8,12,13-tetrazatricyclo[9.4.0.0^2,7]pentadeca-1(11),2(7),3,5,12,14-hexaen-8-yl)-N-[4-(trifluoromethyl)phenyl]acetamide]
20 | 15.8 to 39.8 nM | 39.8 to 100 nM | Cc1cc2c(c(=O)n1C1CC1)-c1cccnc1C(C)C(=O)N2CC(=O)Nc1ccc(Cl)c(F)c1 (stereo not drawn) [#179, N-(4-chloro-3-fluoro-phenyl)-2-(4-cyclopropyl-5,10-dimethyl-3,9-dioxo-4,8,12-triazatricyclo[9.4.0.0^2,7]pentadeca-1(11),2(7),5,12,14-pentaen-8-yl)acetamide]
21 | 15.8 to 39.8 nM | 39.8 to 100 nM | Cc1cc2c(c(F)n1)-c1cnccc1C(C)C(=O)N2CC(=O)Nc1ccc(C(F)(F)F)cc1 (stereo not drawn) [#180, 2-(3-fluoro-5,10-dimethyl-9-oxo-4,8,14-triazatricyclo[9.4.0.0^2,7]pentadeca-1(11),2(7),3,5,12,14-hexaen-8-yl)-N-[4-(trifluoromethyl)phenyl]acetamide]

Source: patent publication US20260217708A1, “FUSED BENZAZEPINE DERIVATIVES FOR USE IN THE TREATMENT OF CANCER AND EPILEPSY” (UCB BIOPHARMA SRL, priority 2023, published 2026)
